Data published in article PMC9298260, “An Immunomodulatory Peptide Dendrimer Inspired from Glatiramer Acetate” (Angewandte Chemie (International Ed. in English), 2021).

Tests used:
[1] = test system: IL-1Ra release from human primary monocytes; experiment: IL-1Ra release from human primary monocytes, immunoassay (ELISA) of supernatants; assay type: cell-based; conditions: primary human monocytes of healthy donors, 25 and 50 μg mL^−1, 48 h
Description: As an activity screen we focused on interleukin‐1 receptor antagonist (IL‐1Ra), a cytokine released by circulating antigen presenting cells (APC) in response to GA.[15, 35] […] To test our dendrimers, we quantified by immunoassay the release of IL‐1Ra from human primary monocytes of healthy donors, an easily accessible type of APC, stimulated or not by addition of lipopolysaccharide (LPS), which in our hands provided a reliable read‐out.[15] We tested at defined weight/volume (25 and 50 μg mL^−1 compound as typically reported for GA)[15, 35] to account for a possible activity increase with MW as often observed with dendrimers when using molarity. In the initial screen the levels of secreted IL‐1Ra remained below 1 ng mL^−1 for all the smaller test compounds as well as with the linear peptide analogs of GA.
Figure 2 Cytokine level of IL‐1Ra in supernatants of primary human monocytes of healthy donors treated with peptide dendrimers, evaluated by ELISA (bars, left vertical axis) and mRNA levels (▴, right vertical axis). […] For mRNA levels evaluation, 2×10^6 cells 3 mL^−1 in 6 well plates were incubated with 50 μg mL^−1 dendrimer or GA for 18 h. […]
Enzyme-linked immunosorbent assay (ELISA)
Monocytes (5×10^4 cells/200 μL well; 96-well plates) were preincubated for 1 h with or without compounds in RPMI-1640 medium supplemented with 10% heat-inactivated FBS, 50 μg/mL streptomycin, 50 U/mL penicillin, 2 mM L-glutamine, and 5 μg/mL polymyxin B sulfate and then cultured for 48 h in the presence or absence of LPS (100 ng/mL) (2). The production of IL-1Ra was measured in culture supernatants by commercially available enzyme immunoassay according to manufacture protocol.
Figure S2. Cytokine level of IL-1Ra in supernatants of monocytes for active dendrimers and analogues evaluated by ELISA assay on primary human monocytes of healthy donors. 5×10^4 cells/200 µL in 96 well plates, were incubated with dendrimers or GA as a control for 48 h in presence or absence of LPS (100 ng/mL), in a range of concentrations (50-25 µg/mL) (mean ± SD, n = 2 different experiments). The results are present as the difference between each sample and the non-treated sample to take into account the difference between base line for each donor.
Figure S3. Cytokine level of IL-1Ra in supernatants of monocytes for active dendrimers and […]
presence or absence of LPS (100 ng/mL), in a range of concentrations (100-12.5 µg/mL) (mean ± SD, n = 3 different experiments). […]

lymphocytes = experiment: IL-1Ra in supernatants of lymphocytes (rest of leukocytes after Percoll), ELISA; assay type: cell-based, human; conditions: rest of leukocytes after Percoll gradient, 50-25 µg/mL, 48 h, n = 2
Description: Similar donor dependent responses of cytokine release to GA have been reported for IL‐27.[38]
Figure S3. Cytokine level of IL-1Ra in supernatants of monocytes for active dendrimers and analogues evaluated by ELISA assay on primary human monocytes of healthy donors. 5×10^4 cells/200 µL in 96 well plates, were incubated with dendrimers or GA as a control for 48 h in presence or absence of LPS (100 ng/mL), in a range of concentrations (100-12.5 µg/mL) (mean ± SD, n = 3 different experiments).
Figure S4. Cytokine level of IL-1Ra in supernatants of monocytes enriched fraction (a) and the rest of leukocytes (b) for active dendrimers and analogues evaluated by ELISA assay.
Monocytes fraction was separated from whole PBMC by Percoll density gradient centrifugation. 5×10^4 cells/200 µL in 96 well plates were incubated with dendrimers or GA (50-25 µg/mL) as a control for 48 h (mean ± SD, n = 2 different experiments). […]

TNF-α = TNF-α time profile in monocytes, RT-qPCR; assay type: cell-based, human; conditions: 50 µg/mL, LPS (100 ng/mL) activated
Description: For closer characterization, we selected dendrimer 1 due to its smaller size and the presence of a cysteine residue that could be used for labelling. […] Furthermore, dendrimer 1 induced the release of IL‐1Ra both with and without LPS activation, but in the latter case the effect was detected only after 18 h incubation (Figure S5e/f).
Enriched monocytes after Percoll centrifugation (4×10^6 cells/3 mL well; 6-well plates) were preincubated for 1 h with or without compounds in RPMI-1640 medium supplemented with 10% heat-inactivated FBS, 50 μg/mL streptomycin, 50 U/mL penicillin, 2 mM L-glutamine, and then incubated for the indicated duration. After the incubation cells were collected, total RNA was extracted, reverse transcribed and analyzed by SYBR Green Master Mix. As a housekeeping gene was used Actin 5'-CAC TGG GGG CTA CTG GAC-3', 3'-AACATGGTGTTGGCAGAAACT-5', IL-1Ra 5'-TTCCTGTTCCATTCAGAGACG -3', 3'-CTTCTGGTTAACATCCCAGATTC -5'.
Figure S5. Dendrimer 1 affected mRNA levels in both LPS -activated and resting monocytes.
Monocytes 4 ×10^6 cells/3 mL in 6 well plates were incubated for indicated time with 50 µg/mL of 1 or without any treatment (NT) (a, c, e); or preincubated for 1 h with 100 ng/mL of LPS, and then with 50 µg/mL of 1 (b, d, f) or without any treatment (NT). […]

(KA)8(KAK)4(KEKA)2KAKEAYCA-NH2 [compound 1, G3 peptide dendrimer]
IL-1Ra release activity (in words) [1]: comparable or higher than GA | induction of IL-1Ra in lymphocytes (lymphocytes): did not occur | release of TNF-α (TNF-α): inhibited
